According to patent US12528761B2, “Thyromimetics” (Autobahn Therapeutics, Inc., priority 2020, dated 2026):

Target: T1, recombinant human FAAH (rhFAAH) (Homo sapiens, UniProt O00519)
T1 construct: purchased Cayman Chemical (Ann Arbor, MI, USA)
T1 sequence (O00519 1-579): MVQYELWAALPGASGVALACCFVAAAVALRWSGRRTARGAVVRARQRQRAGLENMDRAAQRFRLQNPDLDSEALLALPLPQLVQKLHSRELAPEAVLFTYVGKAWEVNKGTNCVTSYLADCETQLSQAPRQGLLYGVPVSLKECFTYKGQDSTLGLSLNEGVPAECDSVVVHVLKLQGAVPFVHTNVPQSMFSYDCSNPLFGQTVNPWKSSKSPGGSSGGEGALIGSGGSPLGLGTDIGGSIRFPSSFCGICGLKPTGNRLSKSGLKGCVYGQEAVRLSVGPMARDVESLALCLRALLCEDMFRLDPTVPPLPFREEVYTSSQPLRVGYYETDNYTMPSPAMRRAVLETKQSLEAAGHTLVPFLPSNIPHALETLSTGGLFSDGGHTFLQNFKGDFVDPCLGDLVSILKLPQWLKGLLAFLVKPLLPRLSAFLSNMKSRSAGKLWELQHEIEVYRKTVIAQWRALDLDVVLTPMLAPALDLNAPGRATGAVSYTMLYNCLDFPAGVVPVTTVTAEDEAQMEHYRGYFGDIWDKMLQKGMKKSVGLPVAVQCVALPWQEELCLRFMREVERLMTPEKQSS
Test: FAAH substrate evaluation (formation of acid metabolite, LC-MS/MS)
Assay type: biochemical
Parameters: key: A: ke is equal to or less than 1.0; B: ke is greater than 1.0 and less than or equal to 2.5; C: ke is greater than 2.5; NC: no conversion
Details: 0.5 ng/μL rhFAAH, 1 μM test compound, pH 8.0, room temperature, 0-60 minutes
Description: Purified recombinant human FAAH (rhFAAH) was purchased from Cayman Chemical (Ann Arbor, MI, USA). The total volume for each incubation was 400 μL containing a final 0.5 ng/μL rhFAAH, 1 μM test compound, 1.25% ethanol or 1 μM PF-3845 (FAAH inhibitor), and 0.1% bovine serum albumin in Tris-EDTA buffer at pH 8.0). The positive control was LL-341001. The incubation was conducted at the room temperature. At 0, 5, 15, 30 and 60 minutes, an aliquot of 30 μL reaction mixtures was removed and mixed with 300 μL acetonitrile containing 5 ng/mL terfenadine and 10 ng/mL tolbutamide as internal standards to quench the reaction. The resulting mixture was centrifuged at 4000 rpm, 4° C. for 15 minutes, and 100 μL supernatant was ready for LC-MS/MS analysis to measure the formation of acid metabolite.
Acquity Ultra Performance LC system from Waters was used for sample analysis. The chromatography was performed on a reverse phase Kinetex 2.6 μm C18 column, 2.1×30 mm, 100 Å. The mobile phase A comprised of 0.1% formic acid in water and mobile phase B comprised of 0.1% formic acid in acetonitrile with a 2-min run time at the flow rate of 0.8 mL/min for the acid metabolite from positive control or a 1.5 min run time at the flow rate of 0.9 mL/min for the acid metabolite of test compounds. The mass spectrometer (API-5500 and API Q Trap 4000 Applied Biosystems/MDS SCIEX Instruments, Framingham, MA, USA) was operated under ESI positive or negative ion MRM mode.
The formation of acid metabolite was monitored and quantified using one calibration point of 1 μM. The observed rate constant (ke) for the acid metabolite formation was calculated by plotting the metabolite concentration versus time of incubation with the slope being ke and is shown in Table 4.

Row | Compound | ke, observed rate constant for the acid metabolite formation
1 | CNC(=O)CNc1cc(Cl)c(Cc2ccc(O)c(C(C)C)c2F)c(C)c1F [Compound 136, 2-((5-chloro-2-fluoro-4-(2-fluoro-4-hydroxy-3-isopropylbenzyl)-3-methylphenyl)amino)-N-methylacetamide] | A (ke is equal to or less than 1.0)
2 | CNC(=O)CSc1cc(Cl)c(Cc2ccc(O)c(C(C)C)c2)c(C)c1F [Compound 220, 2-((5-chloro-2-fluoro-4-(4-hydroxy-3-isopropylbenzyl)-3-methylphenyl)thio)-N-methylacetamide] | NC
3 | CNC(=O)Cc1cc(Cl)c(Cc2ccc(O)c(C(C)C)c2F)c(Cl)c1 [Compound 33, 2-(3,5-dichloro-4-(2-fluoro-4-hydroxy-3-isopropylbenzyl)phenyl)-N-methylacetamide] | NC
4 | Cc1cc(CSCC(=O)NC2CCCCC2)cc(Cl)c1Cc1ccc(O)c(C(C)C)c1 [Compound 131, 2-((3-chloro-4-(4-hydroxy-3-isopropylbenzyl)-5-methylbenzyl)thio)-N-cyclohexylacetamide] | NC
5 | CNC(=O)/C(C)=C/c1cc(C)c(Cc2ccc(O)c(C(C)C)c2F)c(Cl)c1 [Compound 238, (E)-3-(3-chloro-4-(2-fluoro-4-hydroxy-3-isopropylbenzyl)-5-methylphenyl)-N,2-dimethylacrylamide] | B (ke is greater than 1.0 and less than or equal to 2.5)
6 | CNC(=O)CSc1cc(C)c(Cc2ccc(O)c(C(C)C)c2)c(Cl)c1F [Compound 218, 2-((3-chloro-2-fluoro-4-(4-hydroxy-3-isopropylbenzyl)-5-methylphenyl)thio)-N-methylacetamide] | B (ke is greater than 1.0 and less than or equal to 2.5)
7 | COc1ccc(NC(=O)CNc2cc(Cl)c(Cc3ccc(O)c(C(C)C)c3F)c(Cl)c2F)cn1 [Compound 158, 2-((3,5-dichloro-2-fluoro-4-(2-fluoro-4-hydroxy-3-isopropylbenzyl)phenyl)amino)-N-(6-methoxypyridin-3-yl)acetamide] | B (ke is greater than 1.0 and less than or equal to 2.5)
8 | CCNC(=O)CSc1cc(Cl)c(Cc2ccc(O)c(C(C)C)c2F)c(Cl)c1 [Compound 187, 2-((3,5-dichloro-4-(2-fluoro-4-hydroxy-3-isopropylbenzyl)phenyl)thio)-N-ethylacetamide] | A (ke is equal to or less than 1.0)
9 | Cc1cc(CSCC(=O)NC2CC2)cc(Cl)c1Cc1ccc(O)c(C(C)C)c1 [Compound 229, 2-((3-chloro-4-(4-hydroxy-3-isopropylbenzyl)-5-methylbenzyl)thio)-N-cyclopropylacetamide] | C (ke is greater than 2.5)
10 | CC(C)c1c(O)ccc(Cc2c(Cl)cc(NCC(=O)N(C)C)c(F)c2Cl)c1F [Compound 166, 2-((3,5-dichloro-2-fluoro-4-(2-fluoro-4-hydroxy-3-isopropylbenzyl)phenyl)amino)-N,N-dimethylacetamide] | NC
11 | Cc1cc(CSCC(=O)N(C)C)cc(Cl)c1Cc1ccc(O)c(C(C)C)c1 [Compound 231, 2-((3-chloro-4-(4-hydroxy-3-isopropylbenzyl)-5-methylbenzyl)thio)-N,N-dimethylacetamide] | A (ke is equal to or less than 1.0)
12 | CC(C)c1cc(Cc2c(Cl)cc(SCC(=O)Nc3cccnn3)cc2Cl)ccc1O [Compound 174, 2-((3,5-dichloro-4-(4-hydroxy-3-isopropylbenzyl)phenyl)thio)-N-(pyridazin-3-yl)acetamide] | C (ke is greater than 2.5)
13 | CC(C)c1cc(Cc2c(Cl)cc(SCC(=O)N(C)C)cc2Cl)ccc1O [Compound 194, 2-((3,5-dichloro-4-(4-hydroxy-3-isopropylbenzyl)phenyl)thio)-N,N-dimethylacetamide] | NC
14 | CCNC(=O)CSc1cc(Cl)c(Cc2ccc(O)c(C(C)C)c2)c(Cl)c1F [Compound 189, 2-((3,5-dichloro-2-fluoro-4-(4-hydroxy-3-isopropylbenzyl)phenyl)thio)-N-ethylacetamide] | A (ke is equal to or less than 1.0)
15 | CNC(=O)CNc1cc(Cl)c(Cc2ccc(O)c(C(C)C)c2)c(Cl)c1 [Compound 175, 2-((3,5-dichloro-4-(4-hydroxy-3-isopropylbenzyl)phenyl)amino)-N-methylacetamide] | A (ke is equal to or less than 1.0)
16 | CON(C)C(=O)/C(C)=C/c1cc(Cl)c(Cc2ccc(O)c(C(C)C)c2F)c(Cl)c1 [Compound 122, (E)-3-(3,5-dichloro-4-(2-fluoro-4-hydroxy-3-isopropylbenzyl)phenyl)-N-methoxy-N,2-dimethylacrylamide] | A (ke is equal to or less than 1.0)
17 | CC(C)c1cc(Cc2c(Cl)cc(SCC(=O)Nc3ccnnc3)cc2Cl)ccc1O [Compound 173, 2-((3,5-dichloro-4-(4-hydroxy-3-isopropylbenzyl)phenyl)thio)-N-(pyridazin-4-yl)acetamide] | C (ke is greater than 2.5)
18 | CNC(=O)CSc1cc(Cl)c(Cc2ccc(O)c(C(C)C)c2F)c(Cl)c1 [Compound 188, 2-((3,5-dichloro-4-(2-fluoro-4-hydroxy-3-isopropylbenzyl)phenyl)thio)-N-methylacetamide] | B (ke is greater than 1.0 and less than or equal to 2.5)
19 | COc1ccc(NC(=O)CSc2cc(Cl)c(Cc3ccc(O)c(C(C)C)c3)c(Cl)c2)nn1 [Compound 169, 2-((3,5-dichloro-4-(4-hydroxy-3-isopropylbenzyl)phenyl)thio)-N-(6-methoxypyridazin-3-yl)acetamide] | A (ke is equal to or less than 1.0)
20 | CC(C)c1cc(Cc2c(Cl)cc(SCC(=O)N3CCC3)cc2Cl)ccc1O [Compound 183, 1-(azetidin-1-yl)-2-((3,5-dichloro-4-(4-hydroxy-3-isopropylbenzyl)phenyl)thio)ethan-1-one] | A (ke is equal to or less than 1.0)
21 | CC(C)c1c(O)ccc(Cc2c(Cl)cc(CC(=O)N(C)C)cc2Cl)c1F [Compound 34, 2-(3,5-dichloro-4-(2-fluoro-4-hydroxy-3-isopropylbenzyl)phenyl)-N,N-dimethylacetamide] | NC
22 | CNC(=O)CNCc1cc(Cl)c(Cc2ccc(O)c(C(C)C)c2)c(Cl)c1 [Compound 111, 2-((3,5-dichloro-4-(4-hydroxy-3-isopropylbenzyl)benzyl)amino)-N-methylacetamide] | A (ke is equal to or less than 1.0)
23 | CNC(=O)CN(C)c1cc(Cl)c(Cc2ccc(O)c(C(C)C)c2)c(Cl)c1 [Compound 149, 2-((3,5-dichloro-4-(4-hydroxy-3-isopropylbenzyl)phenyl)(methyl)amino)-N-methylacetamide] | NC
24 | CNC(=O)CCc1cc(Cl)c(Cc2ccc(O)c(C(C)C)c2F)c(Cl)c1F [Compound 72, 3-(3,5-dichloro-2-fluoro-4-(2-fluoro-4-hydroxy-3-isopropylbenzyl)phenyl)-N-methylpropanamide] | A (ke is equal to or less than 1.0)
